# Data taken from patent US20030032579A1, “Therapeutic use of selective PDE10 inhibitors” (Pfizer Inc., priority 2001, published 2003).
# “And” between values parts separate entries of the source, which are not always exact repeats. Identical values can stand only once.
# How the values were obtained:
# [1] = test system: primary cultures of rat striatal neurons (medium spiny neurons); assay: cGMP accumulation in SNP-stimulated striatal cultures (Example 2); assay type: cell-based; details: compound alone, no stimulus
# [2] = test system: primary cultures of rat striatal neurons (medium spiny neurons); assay: as above; assay type: cell-based; details: for cGMP EC200: SNP-stimulated rat striatal cultures, mean ± S.E.M.
# Description: (§1) The striatal cultures were prepared as previously described (Ventimiglia et al., Eur. J. Neurosci. 7: 213-222, 1995). Briefly, striata (caudate nucleus and putamen) are dissected from E17 rats, were dissociated to produce a single cell suspension and plated at a density of 5×10^4 neurons/well in multiwell plates coated with poly-L-ornithine/laminin. The cells were plated in Neurobasal medium with B27 supplements and BDNF (100 ng/mL). Experiments were typically performed after 4 days in vitro. Medium spiny neurons comprise the majority of cells in these cultures (50 to 60%, as confirmed by GABA immunoreactivity).
# (§2) The striatal cells were exposed to phosphodiesterase inhibitors and incubated for twenty minutes at 37 degrees Celsius. When measuring cGMP, the neurons were stimulated with sodium nitroprusside, a nitric oxide source for two minutes following the 20-minute incubation with compound. When measuring cAMP, the neurons were stimulated with forskolin, an activator of adenylate cyclase for the duration of the twenty minute compound incubation. The cells were lysed using a 9:1 combination of cAMP SPA direct screening Assay Buffer (0.05M acetate with 0.01% sodium azide) and Buffer A (133 mg/mL dodecyltrimethylammonium bromide) and the lysates were frozen on dry ice. A cGMP [[…]] or cAMP [[…]] scintillation proximity assay (SPA) system (Amersham code RPA 540 and RPA 559, respectively) was used to detect the concentration of the respective cyclic nucleotide in the cell lysate.
# (§3) We therefore examined the effects of the compound under conditions in which cAMP or cGMP synthesis was stimulated with forskolin or the NO donor sodium nitroprusside (SNP), respectively.
# [3] = test system: primary cultures of rat striatal neurons (medium spiny neurons); assay: cAMP accumulation in forskolin-stimulated striatal cultures (Example 2); assay type: cell-based; details: for cAMP EC200: forskolin-stimulated rat striatal cultures, mean ± S.E.M.; for cAMP/cGMP (ratio of EC200 values): rat striatal cultures, Example 2
# Description: as §1, §2, §3
# PDE11 = biological target: T1, PDE11 (Homo sapiens, UniProt Q9HCR9); assay: PDE inhibition, SPA cyclic nucleotide hydrolysis assay; assay type: biochemical
# T1 construct: made in house; host or cells: SF9 cells
# Description: In one assay, a substance is screened for inhibition of cyclic nucleotide hydrolysis by the PDE10 and the PDEs from the other gene families. The cyclic nucleotide substrate concentration used in the assay of each individual PDE is ⅓ of the Km concentration, allowing for comparisons of IC50 values across the different enzymes. PDE activity is measured using a Scintillation Proximity Assay (SPA)-based method as previously described (Fawcett et al., 2000). The effect of PDE inhibitors is determined by assaying a fixed amount of enzyme (PDEs 1-11) in the presence of varying substance concentrations and low substrate, such that the IC50 approximates the Ki (cGMP or cAMP in a 3:1 ratio unlabelled to [^3H]-labeled at a concentration of ⅓ Km). The final assay volume is made up to 100 μl with assay buffer [20 mM Tris-HCI pH 7.4, 5 mM MgCl2, 1 mg/ml bovine serum albumin]. […] Plates are re-sealed and shaken for 20 min, after which the beads were allowed to settle for 30 min in the dark and then counted on a TopCount plate reader (Packard, Meriden, Conn.). […]
# PDE activity was measured using the assay with yttrium silicate SPA beads described above in the Detailed Description section.
# PDE9 = biological target: T2, PDE9 (Homo sapiens, UniProt O76083); assay: as above; assay type: biochemical
# T2 construct: made in house; host or cells: SF9 cells
# PDE7 = test system: T3, PDE7; assay: as above; assay type: biochemical, human; details: substrate at 1/3 Km
# T3 construct: other: substrate at 1/3 Km
# Text: (§4) PDEs 2, 3 and 5, isozymes, including human PDEs, can, for example, be prepared from corpus cavernosum; PDE1, isozymes including human, from cardiac ventricle; and PDE4, isozymes, including human, from skeletal muscle. PDE6 can be prepared, for example, from canine retina. Description of enzyme preparation from native tissue is described, for example, by Boolell, M. et al., Int. J. Impotence Research 8:7-52, 1996, incorporated herein by reference.
# (§5) PDEs 7-11 can similarly be prepared from native tissue. Isozymes from the PDEs 7-9 and 11 families can alternatively be generated from full length human recombinant clones transfected into, for example, SF9 cells as described in Fisher, D. A., et al., Biochem. Biophys. Res. Comm. 246, 570-577, 1998; Soderling, S. H. et al., PNAS 96: 7071-7076, 1999; Fisher, D. A. et al., J. Biol. Chem. 273, 15559-15564, 1998b; and Fawcett, L., et al., PNAS 97: 3702-3707, 2000; respectively. PDE10 can also be generated from a rat recombinant clone transfected into SF9 cells (Fujishige et al., European Journal of Biochemistry, Vol. 266, 1118-1127 (1999)). The enzymes are then prepared by FPLC from the soluble fraction of cell lysates as described for PDE6. The aforementioned references are incorporated in their entireties herein by reference. […]
# PDE1 = test system: T4, PDE1; assay: as above; assay type: biochemical, human; details: substrate at 1/3 Km
# T4 construct: other: substrate at 1/3 Km
# Text: as §4, §5
# PDE10 = biological target: T5, PDE10 (Rattus norvegicus, UniProt Q9QYJ6); assay: as above; assay type: biochemical
# T5 construct: made in house; host or cells: SF9 cells
# T5 sequence (Q9QYJ6 1-794): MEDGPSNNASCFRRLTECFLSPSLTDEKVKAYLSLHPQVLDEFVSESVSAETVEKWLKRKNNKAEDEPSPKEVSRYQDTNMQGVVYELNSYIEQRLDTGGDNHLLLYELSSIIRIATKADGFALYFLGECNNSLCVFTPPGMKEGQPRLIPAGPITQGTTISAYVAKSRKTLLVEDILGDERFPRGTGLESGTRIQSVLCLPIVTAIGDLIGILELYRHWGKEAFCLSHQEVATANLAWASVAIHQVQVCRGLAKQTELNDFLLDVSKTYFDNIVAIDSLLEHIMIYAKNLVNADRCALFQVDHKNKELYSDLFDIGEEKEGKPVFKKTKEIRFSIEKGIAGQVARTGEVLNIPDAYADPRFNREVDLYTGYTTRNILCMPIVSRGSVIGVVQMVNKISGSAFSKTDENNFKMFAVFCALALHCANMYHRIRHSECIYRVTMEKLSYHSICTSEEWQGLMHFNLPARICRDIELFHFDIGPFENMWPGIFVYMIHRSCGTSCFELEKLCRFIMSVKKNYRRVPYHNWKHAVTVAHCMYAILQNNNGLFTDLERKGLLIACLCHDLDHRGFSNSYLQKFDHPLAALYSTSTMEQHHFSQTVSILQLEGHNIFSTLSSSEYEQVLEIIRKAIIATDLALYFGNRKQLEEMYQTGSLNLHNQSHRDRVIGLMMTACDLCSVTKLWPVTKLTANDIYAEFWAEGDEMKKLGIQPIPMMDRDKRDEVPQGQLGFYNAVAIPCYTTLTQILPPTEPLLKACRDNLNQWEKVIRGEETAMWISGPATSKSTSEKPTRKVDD
# male CD rats = assay: Catalepsy (bar test), alone and with haloperidol; assay type: in vivo, rat; details: s.c.; for catalepsy when administered alone: 30 min after dosing, papaverine up to 32 mg/kg
# Text: This animal model is used to analyze the effects of compounds on basal ganglia output. […] For some experiments, this was immediately followed by haloperidol. Thirty minutes after drug administration(s), the degree of catalepsy was quantified by placing the animals forepaws on an elevated (10 cm) bar (1 cm diameter) and determining the latency to remove both forepaws from the bar with a latency cutoff of 30 sec. Latencies were ranked within each treatment group for comparison by a Kruskall-Wallace analysis of variance. Post hoc analysis was by the Mann Whitney U test.
# [4] = test system: primary cultures of rat striatal neurons (medium spiny neurons); assay: cAMP accumulation in forskolin-stimulated striatal cultures (Example 2); assay type: cell-based; details: compound alone, no stimulus
# Sprague-Dawley rats = assay: Locomotor activity (shuttle box crossovers), PCP- or amphetamine-stimulated; assay type: in vivo, rat
# Description: Adult, male, Sprague-Dawley rats (250-300 g) were obtained from Charles River (Wilmington, Mass.). Locomotor activity was assessed using crossover behavior in commercially available shuttle boxes (Coulbourn Instruments, Allentown, Pa.). Data was collected in 5 minute intervals for 1 hour after drug administration. Animals received either vehicle (5% DMSO, 5% Emulphor, 90% Saline) phencyclidine (PCP, Sigma Chem. Co.) or amphetamine Sulfate (RBI) followed immediately by either vehicle or test compound. Statistical analysis was performed using the Student's t-test.
# medium spiny neurons [5] = assay: cAMP accumulation in forskolin-stimulated medium spiny neuron culture (Example 5); assay type: cell-based, rat
# Description: (§6) Medium spiny neuron cultures were prepared as discussed in Example 2 from striata from E17 or E18 rat embryos. The striata were digested with trypsin and the dissociated cells plated on poly-L-omithine/laminin coated plates in Neurobasal medium containing B27 supplement. For assays of cyclic nucleotide formation and CREB phosphorylation, neurons are also supplemented with 50 ng/ml BDNF and used at 6 DIV. At this time, approximately 90% of the cells are of neuronal morphology and 50% stain positively for GABA.
# (§7) The PDE inhibitors were differentiated by the potencies with which they potentiated the increase in cAMP versus cGMP (Table 3).
# medium spiny neurons [6] = assay: Differentiation of medium spiny neurons to GABA phenotype, Array Scan; assay type: cell-based, rat; details: added at plating, read at 6 DIV
# Description: The transcriptional events activated following CREB phosphorylation are involved in the survival and differentiation of neurons. We investigated whether the PDE inhibitors in Table 3 effect the survival and differentiation of the medium spiny neurons. These experiments were conducted using a protocol used by Ventimiglia et al. (see Ventimiglia et al., 1995, supra) to assay the effects of BDNF on these processes in medium spiny neurons. Specifically, the PDE inhibitors were added to the medium spiny neuron culture medium at the time of plating, and then at 6 DIV various parameters related to neuronal survival and differentiation were quantified using the Array Scan System from Cellomics, Inc (Pittsburgh, Pa., USA).
# Blue-nuclei; Green-neuron; Red-neuron staining positively for GABA.
# medium spiny neurons [7] = assay: CREB phosphorylation in medium spiny neurons, Western blot; assay type: cell-based, rat; details: Western blotting
# Description: as §6
# cAMP and cGMP activate protein kinases PKA and PKG, respectively. Both kinases are capable of phosphorylating the transcription regulator CREB. We examined the effects of the selective PDE inhibitors in Table 3 on phosphorylation of CREB as a downstream event in the cyclic nucleotide signaling cascade.
# medium spiny neurons [8] = assay: cGMP accumulation in SNAP-stimulated medium spiny neuron culture (Example 5); assay type: cell-based, rat
# Description: as §6, §7
# T2 sequence (O76083 whole entry): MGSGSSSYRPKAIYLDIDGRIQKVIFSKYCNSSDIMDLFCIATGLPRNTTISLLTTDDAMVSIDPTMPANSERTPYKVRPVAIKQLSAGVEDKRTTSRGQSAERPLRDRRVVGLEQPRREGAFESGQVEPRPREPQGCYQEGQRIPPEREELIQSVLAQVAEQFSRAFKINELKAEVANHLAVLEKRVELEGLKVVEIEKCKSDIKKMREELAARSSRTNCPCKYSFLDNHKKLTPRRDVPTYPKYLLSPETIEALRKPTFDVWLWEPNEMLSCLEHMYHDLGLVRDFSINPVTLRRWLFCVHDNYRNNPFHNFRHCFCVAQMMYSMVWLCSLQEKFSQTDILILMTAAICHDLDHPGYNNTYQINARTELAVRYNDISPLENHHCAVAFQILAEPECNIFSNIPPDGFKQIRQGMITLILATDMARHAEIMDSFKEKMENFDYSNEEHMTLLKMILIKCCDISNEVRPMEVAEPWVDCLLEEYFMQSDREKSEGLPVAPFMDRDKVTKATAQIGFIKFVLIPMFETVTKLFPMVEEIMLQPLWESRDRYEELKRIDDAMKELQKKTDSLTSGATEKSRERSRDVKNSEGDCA
# T1 sequence (Q9HCR9 445-933): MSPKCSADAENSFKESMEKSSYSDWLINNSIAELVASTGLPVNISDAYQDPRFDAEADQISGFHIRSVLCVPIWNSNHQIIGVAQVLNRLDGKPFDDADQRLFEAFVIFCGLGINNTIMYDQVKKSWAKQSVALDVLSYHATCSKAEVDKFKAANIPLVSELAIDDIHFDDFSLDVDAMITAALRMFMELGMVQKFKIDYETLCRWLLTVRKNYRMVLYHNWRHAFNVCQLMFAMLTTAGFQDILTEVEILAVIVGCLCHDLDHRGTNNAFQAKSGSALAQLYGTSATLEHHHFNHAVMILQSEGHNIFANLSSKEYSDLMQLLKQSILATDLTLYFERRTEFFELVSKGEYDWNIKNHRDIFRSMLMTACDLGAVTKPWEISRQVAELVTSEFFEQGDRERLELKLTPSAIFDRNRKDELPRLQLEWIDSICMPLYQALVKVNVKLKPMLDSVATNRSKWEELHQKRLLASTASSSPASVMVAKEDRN
structure (smiles),measurement,setting,value
"COc1ccc(Cc2nccc3cc(OC)c(OC)cc23)cc1OC [Papaverine, 1-[(3,4-dimethoxyphenyl)methyl]-6,7-dimethoxyisoquinoline]",change in basal level of cGMP,[1],did not produce measurable changes
same,cGMP EC200,[2],11.7 μM and 11.7 ± 8.2 (4) μM
same,maximal elevation of cGMP over cultures stimulated with SNP alone,[2]; at 100 μM,5 fold
same,cAMP EC200,[3],38.3 ± 11.4 (4) μM
same,IC50,PDE11,11 µM
same,IC50,PDE9,400 µM
same,IC50,PDE7,27 µM
same,IC50,PDE1,37 µM
same,IC50,PDE10,0.018 µM
same,catalepsy when administered alone,male CD rats,did not alone induce catalepsy
same,minimum effective dose for potentiation of haloperidol-induced catalepsy,male CD rats; haloperidol […],3.2 mg/kg
same,change in basal level of cAMP,[4],did not produce measurable changes
same,"locomotor activity, compound alone","Sprague-Dawley rats; 32 mg/kg, i.p., 60 min",small decrease in locomotor activity
same,"amphetamine stimulated locomotion, second experiment","Sprague-Dawley rats; amphetamine 1 mg/kg s.c., 30 minutes",effectively inhibited
same,locomotor activity stimulated by phencyclidine,"Sprague-Dawley rats; papaverine 32 mg/kg i.p., PCP […] i.p., 60 min",significant reduction in the locomotor activity
same,locomotor activity stimulated by amphetamine,"Sprague-Dawley rats; papaverine 32 mg/kg i.p., amphetamine 1 mg/kg i.p., 60 min",without effecting
CCCOc1ccccc1-c1nc2nn[nH]c2c(=O)[nH]1 [Zaprinast],cGMP EC200,[2],98.3 ± 10.3 (3) μM
same,cAMP EC200,[3],>100 (3) μM
same,cAMP/cGMP (ratio of EC200 values),[3],1
COc1ccc(C2CNC(=O)C2)cc1OC1CCCC1 (stereo not drawn) [Rolipram],effect on accumulation of cAMP stimulated with forskolin,medium spiny neurons [5]; FIG. 3,potentiate the increase
same,cAMP EC200,"medium spiny neurons [5]; forskolin-stimulated medium spiny neurons, 6 DIV",2.0 ± 0.2 µM
same,cAMP/cGMP (ratio of EC200 values),"medium spiny neurons [5]; medium spiny neurons, Example 5",0.03
same,change in cAMP level in the absence of a stimulus,medium spiny neurons [5]; no stimulus,no detectable change
same,number of GABAergic neurons,medium spiny neurons [6],no effect
same,rank order of efficacy in increasing CREB phosphorylation,medium spiny neurons [7],forskolin>selective PDE 10 inhibitor>rolipram
same,CREB phosphorylation,medium spiny neurons [7]; compound without other stimuli,increased CREB phosphorylation
same,cGMP EC200,[2],29.2 ± 10.3 (3) μM
same,fold higher concentration to double cGMP accumulation than cAMP,[2]; relative to cAMP EC200,10 fold
same,cAMP EC200,[3],2.5 ± 2.0 (3) μM
same,cAMP EC200,[3]; listed as rolipram,2.5 µM
same,cAMP/cGMP (ratio of EC200 values),[3],0.09
same,effect on accumulation of cGMP stimulated with SNAP,medium spiny neurons [8]; FIG. 4,potentiate the increase
same,cGMP EC200,"medium spiny neurons [8]; SNAP-stimulated medium spiny neurons, 6 DIV",71.1 ± 9.9 µM
same,change in cGMP level in the absence of a stimulus,medium spiny neurons [8]; no stimulus,no detectable change
O=C(CCCN1CCC(O)(c2ccc(Cl)cc2)CC1)c1ccc(F)cc1 [haloperidol],maximally effective dose for catalepsy,male CD rats,1 mg/kg
same,catalepsy when administered alone,male CD rats,robust catalepsy
CC(C)Cn1c(=O)n(C)c(=O)c2[nH]cnc21 [IBMX],cGMP EC200,[2],19 μM and 19.5 (1) μM
same,cAMP EC200,[3],30 μM and 30.2 (2) μM
same,cAMP/cGMP (ratio of EC200 values),[3],1.5
